Reference: US8945627B2, “Micelles for the solubilization of gossypol” (priority 2011, dated 2015)
Values joined by “and” are separate entries in the source; they are usually repeats but may differ in a detail not shown here. Equal entries are not always repeated. Where two headings read alike, the source gives them in different places.

Tests used:
[1] = format: physicochemical
Description: Acetone was evaporated from the aqueous micelle solution under reduced pressure using a rotatory evaporator at 60° C.
(§1) Samples for RP-HPLC were prepared by adding acetonitrile (ACN) into each micelle to break it apart and quantify drugs dissolved in ACN.

[2] = format: physicochemical; remark: listed apart in the source
Description: Acetone was evaporated from the aqueous micelle solution under reduced pressure using a rotatory evaporator at 60° C. The thin film of “polymer plus drug mixture” was reconstituted with 1 mL of 0.9% saline at 60° C.
as §1

[3] = test system: ES-2 ovarian monolayer cells; assay: cells; format: cell-based
[4] = test system: ES-2 ovarian multicellular spheroids; assay: cells; format: cell-based; details: read-out: IC50 values (nM), Spheroids (BLI)
Description: Surviving cells after treatment were quantified by scanning bioluminescence of luc-ES-2 cells (IVIS optical imaging system).
The images of FIG. 7 were collected using an inverted light microscope on spheroids treated with PEG5k-b-PCL10k micelles representing 1000 nM of total drug concentration. In advance, to obtain luciferase-expressing ES-2 cells, ES-2 cells were transfected with pGL4 with neomycin resistance using Lipofectamine 2,000.
Bioluminescence of surviving cells was quantified and IC50 value was calculated by using Compusyn.

[5] = 200 mg polymer
Description: (§2) Supernatant was collected and drug contents were analyzed by RP-HPLC analysis.

[6] = PEG-b-PCL micelle stability tests (drug quantification)
Description: as §2

A549 NSCLC Cells = assay: In vitro cytotoxicity, resazurin cell viability assay; format: cell-based; details: Homo sapiens
Description: Cytotoxicity was determined using a resazurin cell viability assay. A549 cells were cultured in RPMI1640, supplemented with 10% FBS, 100 IU/mL penicillin, 100 μg/mL streptomycin, and 2 mM of L-glutamine. The cells were incubated at 37° C., 5% CO2 atmosphere. Exponentially grown cells were detached from the T-flask by adding a Trypsin-EDTA solution.
Each drug was dissolved at 10 mM as a stock solution using dimethyl sulfoxide (DMSO). […] The stock solution was diluted with cell culture media and the final concentration of DMSO was less than 0.1%. […] The fraction of viable cells were determined using a Cell titer Blue® dye assay (Promega, USA) by monitoring using fluorescence at 590 nm (emission). The inhibitory drug concentration (IC50) was determined by the median-effect equation using compusyn software (Combosyn Inc., US). The determination of IC50 was performed in three independent experiments.
The half maximal inhibitory drug concentration (IC50) was determined by the median-effect equation:
[formula] using CompuSyn software (Version 1.0, ComboSyn Inc., US). In the median-effect equation, fa is the fraction of affected cells; D is drug concentration; and m is the Hill slope or kinetic order.

[7] = Stability of the poloxamer micelle solution, 24 hours at ambient temperature; details: Pluronic F68 micelles, gossypol + paclitaxel
Description: The drugs remaining in the solution were quantified by RP-HPLC described above. The micelle solution was centrifuged at 13,000 rpm for 5 minutes and was then filtered with a 0.45 μm nylon filter to remove any drug aggregates in the micelle solution. The concentration of each drug was compared with that of each drug at initial preparation to estimate the stability of micelle solution.

[8] = neutral pH; cited from earlier work
[9] = polymer 10 mg/ml, CYP + GSP micelles
[10] = polymer 10 mg/ml, PTX + CYP + GSP micelles
[11] = polymer 10 mg/ml, PTX + CYP micelles
[12] = polymer 10 mg/ml, single drug micelles
[13] = polymer 20 mg/ml, PTX + CYP + GSP micelles
[14] = polymer 100 mg/ml, PTX + CYP + GSP micelles
[15] = polymer 200 mg/ml, CYP + GSP micelles
[16] = polymer 200 mg/ml, PTX + CYP + GSP micelles
[17] = polymer 200 mg/ml, PTX + CYP micelles
[18] = PTX/CYP/GSP poloxamer 188 micelles
[19] = 1-in-1 PEG5k-b-PCL10k micelles, 200 mg polymer
[20] = 1-in-1 micelles, 10× decreased drug loading
[21] = 2-in-1 CYP + GSP micelles, 200 mg polymer
[22] = 2-in-1 CYP + GSP micelles, 10× decreased drug loading
[23] = 2-in-1 PTX + CYP micelles, 200 mg polymer
[24] = 2-in-1 PTX + CYP micelles, 10× decreased drug loading
[25] = 3-in-1 PTX + CYP + GSP micelles, 200 mg polymer
[26] = 3-in-1 PTX + CYP + GSP micelles, 10× decreased drug loading
[27] = PEG5k-b-PCL10k micelles, Celltiter Blue readout, read-out: IC50 values (nM), Monolayer (Celltiter Blue)
[28] = PEG5k-b-PCL10k micelles, bioluminescence readout, read-out: IC50 values (nM), Monolayer (BLI)
[29] = PEG5k-b-PCL10k micelles, bioluminescence readout
[30] = 2-in-1 PTX + GSP micelles, 200 mg polymer
[31] = 2-in-1 PTX + GSP micelles, 10× decreased drug loading
[32] = singly-loaded poloxamer 188 micelles

CC1=C2C[C@H]3[C@@H](CC=C4C[C@@H](O)CC[C@@]43C)[C@@H]2CC[C@]12O[C@@H]1C[C@H](C)CN[C@H]1[C@H]2C [CYP, 11-deoxojervine]
drug loaded [1, 9]: 1.50 ± 0.50 mg/mL
drug loaded [1, 10]: 1.03 ± 0.02 mg/mL
drug loaded [1, 11]: 0.14 ± 0.06 mg/mL
drug loaded [1, 12]: 0.05 ± 0.03 mg/mL
drug loaded [1, 13]: 1.25 ± 0.11 mg/mL
drug loaded [1, 14]: 4.47 ± 0.38 mg/mL
drug loaded [1, 15]: 3.23 ± 0.99 mg/mL
drug loaded [1, 16]: 6.2 mg/mL and 6.20 ± 0.49 mg/mL
drug loaded [1, 17]: 0.89 ± 0.03 mg/mL
drug loaded [2, 9]: 0.16 ± 0.04 mg/mL
drug loaded [2, 10]: 0.21 ± 0.07 mg/mL
drug loaded [2, 11]: 0.03 ± 0.001 mg/mL
drug loaded [2, 12]: 0.012 ± 0.002 mg/mL
drug loaded [2, 13]: 0.27 ± 0.07 mg/mL
drug loaded [2, 14]: 3.55 ± 0.18 mg/mL
drug loaded [2, 15]: 3.5 ± 0.3 mg/mL
drug loaded [2, 16]: 5.1 mg/mL and 5.09 ± 0.29 mg/mL
drug loaded [2, 17]: 0.08 ± 0.02 mg/mL
IC50 ([3]; read-out: IC50 values (nM), Monolayer (BLI)): 240 nM
IC50 ([3]; read-out: IC50 values (nM), Monolayer (Celltiter Blue)): 245 nM
IC50 [4]: 64.8 nM
% Remaining Day 0 ([5]; CYP/GSP poloxamer 188 micelles): 100 ± 7.4%
% Remaining Day 1 ([5]; CYP/GSP poloxamer 188 micelles): 106.9 ± 3.4%
% Remaining Day 0 [5, 18]: 100 ± 4.9%
% Remaining Day 1 [5, 18]: 101.2 ± 2.3%
% Remaining Day 0 [6, 19]: 100 ± 10.6%
% Remaining Day 1 [6, 19]: 96.3 ± 5.0%
% Remaining Day 0 [6, 20]: 100 ± 7.9%
% Remaining Day 1 [6, 20]: 96.0 ± 4.4%
% Remaining Day 0 [6, 21]: 100 ± 8.2%
% Remaining Day 1 [6, 21]: 91.0 ± 5.3%
% Remaining Day 0 [6, 22]: 100 ± 5.9%
% Remaining Day 1 [6, 22]: 96.5 ± 4.4%
% Remaining Day 0 [6, 23]: 100 ± 11.3%
% Remaining Day 1 [6, 23]: 97.4 ± 5.7%
% Remaining Day 0 [6, 24]: 100 ± 5.5%
% Remaining Day 1 [6, 24]: 94.3 ± 5.3%
% Remaining Day 0 [6, 25]: 100 ± 6.1%
% Remaining Day 1 [6, 25]: 36.8 ± 1.5%
% Remaining Day 0 [6, 26]: 100 ± 4.2%
% Remaining Day 1 [6, 26]: 87.7 ± 2.6%

CC(=O)O[C@H]1C(=O)[C@@]2(C)[C@H]([C@H](OC(=O)c3ccccc3)[C@]3(O)C[C@H](OC(=O)[C@H](O)[C@@H](NC(=O)c4ccccc4)c4ccccc4)C(C)=C1C3(C)C)[C@]1(OC(C)=O)CO[C@@H]1C[C@@H]2O [Paclitaxel, paclitaxel]
IC50 (A549 NSCLC Cells; A549, free drugs in DMSO stock, 72 hours, n = 3, mean ± SD, two drug combinations molar ratio 1:1, three drug 5:5:1, read-out: IC50): 0.616 ± 0.418 µM
drug loaded [2, 10]: 0.38 ± 0.12 mg/mL
drug loaded [2, 11]: 0.01 ± 0.001 mg/mL
drug loaded ([2]; polymer 10 mg/ml, PTX + GSP micelles): 0.87 ± 0.09 mg/mL
drug loaded [2, 12]: 0.014 ± 0.002 mg/mL
drug loaded [2, 13]: 0.63 ± 0.14 mg/mL
drug loaded ([2]; polymer 200 mg/ml, PTX + CYP + GSP micelles, listed as PTX): 6.4 mg/mL and 6.41 ± 0.63 mg/mL
drug loaded [2, 17]: 0.01 ± 0.01 mg/mL
drug loaded ([2]; polymer 200 mg/ml, PTX + GSP micelles): 3.49 ± 0.39 mg/mL
IC50 [3, 27]: 13 nM
IC50 [3, 28]: 12 nM
IC50 [4, 29]: 8.7 nM
% Remaining Day 0 [6, 19]: 100 ± 9.3%
% Remaining Day 1 [6, 19]: 34.3 ± 3.1%
% Remaining Day 0 [6, 20]: 100 ± 8.3%
% Remaining Day 1 [6, 20]: 89.7 ± 5.2%
% Remaining Day 0 [6, 23]: 100 ± 12.6%
% Remaining Day 1 [6, 23]: 27.0 ± 2.9%
% Remaining Day 0 [6, 24]: 100 ± 6.2%
% Remaining Day 1 [6, 24]: 90.7 ± 5.1%
% Remaining Day 0 [6, 30]: 100 ± 9.4%
% Remaining Day 1 [6, 30]: 66.8 ± 4.1%
% Remaining Day 0 [6, 31]: 100 ± 6.3%
% Remaining Day 1 [6, 31]: 93.2 ± 4.9%
% Remaining Day 0 [6, 25]: 100 ± 4.7%
% Remaining Day 1 [6, 25]: 99.3 ± 2.2%
% Remaining Day 0 [6, 26]: 100 ± 3.6%
% Remaining Day 1 [6, 26]: 87.9 ± 2.7%
% w/w drug(s) @ 24 hr [7]: 63.4 ± 35.4 % w/w
Initial drug level in water [7]: 6.53 ± 0.31 mg/mL
Drug level @ 24 hrs in water ([7]; ambient temperature): 4.11 ± 2.26 mg/mL

C=CCNC1=C2C[C@@H](C)C[C@H](OC)[C@H](O)[C@@H](C)/C=C(\C)[C@H](OC(N)=O)[C@@H](OC)/C=C\C=C(/C)C(=O)NC(=CC1=O)C2=O [17-AAG, 17-allylamino-17-demethoxygeldanamycin]
drug level in water [32]: 0.21 mg/mL
water solubility [8]: about 0.1 mg/mL

Cc1cc2c(C(C)C)c(O)c(O)c(C=O)c2c(O)c1-c1c(C)cc2c(C(C)C)c(O)c(O)c(C=O)c2c1O [Gossypol, gossypol]
IC50 (A549 NSCLC Cells; A549, 72 h): 6.5 ± 3.4 µM
IC50 [3, 27]: > 100000 nM
IC50 [3, 28]: > 100000 nM
IC50 [4, 29]: 4820 nM
drug level in water (2-in-1 poloxamer 188 micelles, gossypol + 17-AAG): 5.18 ± 0.47 mg/mL
drug level in water (2-in-1 poloxamer 188 micelles, gossypol + paclitaxel): 4.65 ± 0.62 mg/mL
drug level in water (2-in-1 poloxamer 188 micelles, gossypol + paclitaxel, listed as gossypol): 4.65 mg/mL
drug level in water [32]: 5.41 ± 0.14 mg/mL
% Remaining Day 0 [6, 19]: 100 ± 4.7%
% Remaining Day 1 [6, 19]: 89.4 ± 3.3%
% Remaining Day 0 [6, 20]: 100 ± 5.6%
% Remaining Day 1 [6, 20]: 98.3 ± 3.6%
% Remaining Day 0 [6, 21]: 100 ± 4.9%
% Remaining Day 1 [6, 21]: 89.8 ± 3.7%
% Remaining Day 0 [6, 22]: 100 ± 4.1%
% Remaining Day 1 [6, 22]: 95.4 ± 3.6%
% Remaining Day 0 [6, 30]: 100 ± 4.4%
% Remaining Day 1 [6, 30]: 97.0 ± 2.5%
% Remaining Day 0 [6, 31]: 100 ± 7.1%
% Remaining Day 1 [6, 31]: 89.5 ± 3.8%
% Remaining Day 0 [6, 25]: 100 ± 3.8%
% Remaining Day 1 [6, 25]: 82.3 ± 2.6%
% Remaining Day 0 [6, 26]: 100 ± 3.8%
% Remaining Day 1 [6, 26]: 81.0 ± 3.0%
